The experiment deals with Synechococcus HPPD. In words: HPPD activity assay, Synechococcus HPPD. It is filed as biochemical. To be noted: normalized on Hordeum HPPD. Here is the method:
HPPD produces homogentisic acid and CO2 from 4-hydroxyphenylpyruvate (4-HPP) and O2. The activity assay for HPPD is based on the analysis of homogentisic acid by reversed phase HPLC.
The assay mixture can contain 150 mM potassium phosphate buffer pH 7.0, 50 mM L-ascorbic acid, 1 μM FeSO4 and 7 μg of purified enzyme in a total volume of 1 ml. Inhibitors are dissolved in DMSO (dimethylsulfoxide) to a concentration of 20 mM or 0.5 mM, respectively. From this stock solution serial five-fold dilutions are prepared in DMSO, which are used in the assay. The respective inhibitor solution accounts for 1% of the assay volume. […]
Activities are normalized by setting the uninhibited enzyme activity to 100%. […] values are calculated using non-linear regression. […]
Inhibitors are dissolved in DMSO (dimethylsulfoxide) to a concentration of 0.5 mM. […] IC50 values are calculated using non-linear regression.
Using methods which are described in the above examples or well known in the art, purified, recombinant wildtype HPPD enzymes are characterized with respect to their kinetic properties and sensitivity towards HPPD inhibiting herbicides. Apparent michaelis constants (Km) and maximal reaction velocities (Vmax) are calculated by non-linear regression with the software GraphPad Prism 5 (GraphPad Software, La Jolla, USA) using a substrate inhibition model. […]

As to `CC1=NOC(c2c(Cl)ccc(C3=C(O)c4ncccc4N(CC(F)F)S3(=O)=O)c2Cl)C1` (stereo not shown) [Inhibitor 1, 3-[2,4-dichloro-3-(3-methyl-4,5-dihydroisoxazol-5-yl)phenyl]-1-(2,2-difluoroethyl)-2,2-dioxo-pyrido[3,2-c]thiazin-4-ol], the “Normalized tolerance index (TI)” value is recorded as 2.2.

Source of the values: US10801035B2, “Plants having increased tolerance to herbicides” (BASF SE, priority 2011, dated 2020).
